# Test results reported in patent publication US9060515B2, “Heterocyclic urea compounds” (BIOTA EUROPE LTD, priority 2011, dated 2015).
# Where two headings read alike, the source gives them in different places.
# Columns and labels:
# Format in all cases: cell-based
# E. faecalis (ATCC 29212) = test: Antibacterial susceptibility testing (MIC, broth microdilution or agar dilution), E. faecalis
# Method: (§1) Compounds of the invention were tested for antimicrobial activity by susceptibility testing in liquid or on solid media. MICs for compounds against each strain were determined by the broth microdilution or agar dilution method according to the guidelines of the Clinical Laboratories and Standards Institute, formerly the National Committee for Clinical Laboratory Standards (Clinical Laboratories and Standards Institute. Methods for Dilution Antimicrobial Susceptibility Tests for Bacteria That Grow Aerobically; Approved Standard—Seventh Edition. Document M7-A7. CLSI, Wayne, Pa., 2006; Clinical Laboratories and Standards Institute. The Gram positive bacterial strains tested include S. aureus (Staphylococcus aureus (Isolate ID ATCC 29213)), E. faecalis (Enterococcus faecalis (Isolate ID ATCC 29212)) and S. pyogenes (Streptococcus pyogenes (Isolate ID ATCC 51339)). The Gram negative bacterial strains tested include H. influenzae (Haemophilus influenzae (Isolate ID ATCC 49247)).
# S. pyogenes (ATCC 51339) = test: Antibacterial susceptibility testing (MIC, broth microdilution or agar dilution), S. pyogenes; conditions: Streptococcus pyogenes, ATCC51339; read-out: S. pyogenes (ATCC 51339) minimal inhibitory concentration (MIC)
# Method in brief: (§2)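 MICs by CLSI (M7-A7) broth microdilution or agar dilution, against reference ATCC strains as listed.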
# S. aureus (ATCC 29213) = test: Antibacterial susceptibility testing (MIC, broth microdilution or agar dilution), S. aureus
# Method in brief: as §2
# [1] = system: H. influenzae (ATCC 49247); test: Antibacterial susceptibility testing (MIC, broth microdilution or agar dilution), H. influenzae; conditions: Haemophilus influenzae, ATCC49247; read-out: H. influenzae (ATCC 49247) minimal inhibitory concentration (MIC)
# Method: as §1
# [2] = Enterococcus faecalis, ATCC29212; read-out: E. faecalis (ATCC 29212) minimal inhibitory concentration (MIC)
# [3] = Staphylococcus aureus, ATCC29213; read-out: S. aureus (ATCC 29213) minimal inhibitory concentration (MIC)
Structure (SMILES),MIC (E. faecalis (ATCC 29212); [2]) [µg/mL],MIC (S. pyogenes (ATCC 51339)) [µg/mL],MIC (S. aureus (ATCC 29213); [3]) [µg/mL],MIC [1] [µg/mL],"MIC (E. faecalis (ATCC 29212); Enterococcus faecalis, ATCC29212, read-out: E. faecalis (ATCC 29212) minimal inhibitory concentration (MIC)) [µg/mL]","MIC (S. aureus (ATCC 29213); Staphylococcus aureus, ATCC29213, read-out: S. aureus (ATCC 29213) minimal inhibitory concentration (MIC)) [µg/mL]"
"CCNC(=O)Nc1cc(Nc2cccc(C)c2)c(C(=O)Nc2cccc(C)c2)cn1 [Compound 1, 6-(3-ethylureido)-N-m-tolyl-4-(m-tolylamino)nicotinamide]",≤ 1,16,2,,,
CCNC(=O)Nc1cc(Nc2ccccc2)c(C(=O)Nc2cccc(Cl)c2)cn1 [Compound 4],≤ 1,4,≤ 1,,,
"CCNC(=O)Nc1cc(Nc2cccnc2)c(C(=O)Nc2ccccc2)cn1 [Compound 13, 6-(3-ethylureido)-N-phenyl-4-(pyridin-3-ylamino)nicotinamide]",≤ 1,≤ 1,≤ 1,,,
"CCNC(=O)Nc1cc(Nc2ccccc2)c(C(=O)Nc2ccccc2)cn1 [Compound 17, 6-(3-ethylureido)-N-phenyl-4-(phenylamino)nicotinamide]",≤ 1,2,≤ 1,,,
"CCNC(=O)Nc1cc(Nc2ccccc2)c(C(=O)Nc2cccc(C)c2)cn1 [Compound 18, 6-(3-ethylureido)-4-(phenylamino)-N-m-tolylnicotinamide]",≤ 1,2,≤ 1,,,
"CCNC(=O)Nc1cc(Nc2cccnc2)c(C(=O)Nc2cccnc2)cn1 [Compound 19, 6-(3-ethylureido)-N-(pyridin-3-yl)-4-(pyridin-3-ylamino)nicotinamide]",≤ 1,≤ 1,8,,,
"CCNC(=O)Nc1cc(Nc2ccccc2)c(C(=O)Nc2cccnc2)cn1 [Compound 20, 6-(3-ethylureido)-4-(phenylamino)-N-(pyridin-3-yl)nicotinamide]",≤ 1,≤ 1,≤ 1,,,
"CCNC(=O)Nc1cc(Nc2ccccc2)c(C(=O)Nc2ccc(N3CCOCC3)nc2)cn1 [Compound 23, 6-(3-ethylureido)-N-(6-morpholinopyridin-3-yl)-4-(phenylamino)nicotinamide]",≤ 1,≤ 1,2,,,
"CCNC(=O)Nc1cc(Nc2ccccc2)c(C(=O)Nc2ccc(NC(C)=O)nc2)cn1 [Compound 24, N-(6-acetamidopyridin-3-yl)-6-(3-ethylureido)-4-(phenylamino)nicotinamide]",≤ 1,≤ 1,2,,,
"CCNC(=O)Nc1cc(NCc2cccnc2)c(C(=O)Nc2ccccc2)cn1 [Compound 25, 6-(3-ethylureido)-N-phenyl-4-(pyridin-3-ylmethylamino)nicotinamide]",2,8,,,,
"CCNC(=O)Nc1cc(NCc2cccnc2)c(C(=O)Nc2cccnc2)cn1 [Compound 26, 6-(3-ethylureido)-N-(pyridin-3-yl)-4-(pyridin-3-ylmethylamino)nicotinamide]",8,8,,,,
"CCNC(=O)Nc1cc(Nc2ccccc2)c(C(=O)NCc2cccnc2)cn1 [Compound 28, 6-(3-ethylureido)-4-(phenylamino)-N-(pyridin-3-ylmethyl)nicotinamide]",≤ 1,≤ 1,,,,
"CCNC(=O)Nc1cc(Nc2ccccc2)c(C(=O)Nc2ccn(C)c(=O)c2)cn1 [Compound 134, 6-[(Ethylcarbamoyl)amino]-N-(1-methyl-2-oxo-1,2-dihydropyridin-4-yl)-4-(phenylamino)pyridine-3-carboxamide]",,,4,8,,
"CCNC(=O)Nc1cc(Nc2ccccc2)c(C(=O)Nc2ccc(/C=C/C(=O)O)cc2)cn1 [Compound 137, (2E)-3-{4-[({6-[(ethylcarbamoyl)amino]-4-(phenylamino)pyridin-3-yl}carbonyl)amino]phenyl}prop-2-enoic acid]",,,2,4,,
"CCNC(=O)Nc1cc(Nc2ccc(Cl)cc2)c(C(=O)Nc2ccc(CCC(=O)OC)cc2)cn1 [Compound 148, methyl 3-{4-[({4-[(4-chlorophenyl)amino]-6-[(ethylcarbamoyl)amino]pyridin-3-yl}carbonyl)amino]phenyl}propanoate]",,,≤ 1,4,,
"CCNC(=O)Nc1cc(Nc2ccc(Cl)cc2)c(C(=O)Nc2ccc(CCC(=O)O)cc2)cn1 [Compound 149, 3-{4-[({4-[(4-chlorophenyl)amino]-6-[(ethylcarbamoyl)amino]pyridin-3-yl}carbonyl)amino]phenyl}propanoic acid]",,,≤ 1,4,,

Structure (SMILES),MIC (E. faecalis (ATCC 29212); [2]) [µg/mL],MIC (S. pyogenes (ATCC 51339)) [µg/mL],MIC (S. aureus (ATCC 29213); [3]) [µg/mL],MIC [1] [µg/mL],"MIC (E. faecalis (ATCC 29212); Enterococcus faecalis, ATCC29212, read-out: E. faecalis (ATCC 29212) minimal inhibitory concentration (MIC)) [µg/mL]","MIC (S. aureus (ATCC 29213); Staphylococcus aureus, ATCC29213, read-out: S. aureus (ATCC 29213) minimal inhibitory concentration (MIC)) [µg/mL]"
"CCNC(=O)Nc1cc(Nc2ccc(Cl)cc2)c(C(=O)Nc2ccc(CC(C)(C)C(=O)O)cc2)cn1 [Compound 160, 3-{4-[({4-[(4-chlorophenyl)amino]-6-[(ethylcarbamoyl)amino]pyridin-3-yl}carbonyl)amino]phenyl}-2,2-dimethylpropanoic acid]",,,≤ 1,8,,
"CCNC(=O)Nc1cc(Nc2cc(F)cc(F)c2)c(C(=O)Nc2ccc(CCc3nnn[nH]3)cc2)cn1 [Compound 161, 4-(3,5-difluoroanilino)-6-(ethylcarbamoylamino)-N-[4-[2-(1H-tetrazol-5-yl)ethyl]phenyl]pyridine-3-carboxamide]",,,≤ 1,8,,
CCNC(=O)Nc1cc(Nc2ccnc(OC)c2)c(C(=O)Nc2cccnc2)cn1 [Compound 163],,,≤ 1,8,,
"CCNC(=O)Nc1cc(Nc2ccccc2)c(C(=O)Nc2ccc(CCC(=O)O)nc2)cn1 [Compound 166, 3-{5-[({6-[(ethylcarbamoyl)amino]-4-(phenylamino)pyridin-3-yl}carbonyl)amino]pyridin-2-yl}propanoic acid]",,,16,8,,
"CCNC(=O)Nc1cc(Nc2ccccc2)c(C(=O)Nc2cnc(NCC3(C(=O)O)CCC3)nc2)cn1 [Compound 168, 1-[({5-[({6-[(ethylcarbamoyl)amino]-4-(phenylamino)pyridin-3-yl}carbonyl)amino]pyrimidin-2-yl}amino)methyl] cyclobutanecarboxylic acid]",,,2,8,,
CCNC(=O)Nc1cc(Nc2ccccc2)c(C(=O)Nc2ccc([C@@H]3C[C@H]3C(=O)O)cc2)cn1 [Compound 169],,,2,2,,
"CCNC(=O)Nc1cc(Nc2cccnc2)c(C(=O)Nc2ccc(CC(C)(C)C(=O)O)cc2)cn1 [Compound 171, 3-{4-[({6-[(ethylcarbamoyl)amino]-4-(pyridin-3-ylamino)pyridin-3-yl}carbonyl)amino]phenyl}-2,2-dimethylpropanoic acid]",,,4,4,,
CCNC(=O)Nc1cc(Nc2ccccc2)c(C(=O)Nc2ccc([C@@H]3C[C@H]3C(=O)OCC)cc2)cn1 [Compound 180],,,,2,,
"CCNC(=O)Nc1cc(Nc2ccc(C#N)cc2)c(C(=O)Nc2ccc(CN3CCN(C)CC3)cc2)cn1 [Compound 205, 4-[(4-cyanophenyl)amino]-6-[(ethylcarbamoyl)amino]-N-{4-[(4-methylpiperazin-1-yl)methyl]phenyl}pyridine-3-carboxamide]",≤ 1,,2,,,
CCNC(=O)Nc1cc(Nc2ccccc2)c(C(=O)Nc2ccc(CP(=O)(OCC)OCC)cc2)cn1 [Compound 206],,,,,≤ 1,≤ 1
"CCNC(=O)Nc1cc(Nc2ccccc2)c(C(=O)Nc2ccc(C(=O)NC)cc2)cn1 [Compound 213, 6-[(ethylcarbamoyl)amino]-N-[4-(methylcarbamoyl)phenyl]-4-(phenylamino)pyridine-3-carboxamide]",≤ 1,,4,,,
"CCNC(=O)Nc1cc(Nc2ccccc2)c(C(=O)Nc2ccc(CN3CCS(=O)(=O)CC3)cc2)cn1 [Compound 214, N-{4-[(1,1-dioxidothiomorpholin-4-yl)methyl]phenyl}-6-[(ethylcarbamoyl)amino]-4-(phenylamino)pyridine-3-carboxamide]",≤ 1,,4,,,
"CCNC(=O)Nc1cc(Nc2ccc(F)c(F)c2)c(C(=O)Nc2ccc(CCC(=O)OCC)cc2)cn1 [Compound 215, ethyl 3-{4-[({4-[(3,4-difluorophenyl)amino]-6-[(ethylcarbamoyl)amino]pyridin-3-yl}carbonyl)amino]phenyl}propanoate]",≤ 1,,≤ 1,,,
"CCNC(=O)Nc1cc(Nc2cc(Cl)cc(Cl)c2)c(C(=O)Nc2ccc(CCC(=O)OCC)cc2)cn1 [Compound 225, ethyl 3-{4-[({4-[(3,5-dichlorophenyl)amino]-6-[(ethylcarbamoyl)amino]pyridin-3-yl}carbonyl)amino]phenyl}propanoate]",≤ 1,,4,,,
"CCNC(=O)Nc1cc(Nc2ccc(F)c(Cl)c2)c(C(=O)Nc2ccc(CCC(=O)OCC)cc2)cn1 [Compound 226, ethyl 3-{4-[({4-[(3-chloro-4-fluorophenyl)amino]-6-[(ethylcarbamoyl)amino]pyridin-3-yl}carbonyl)amino]phenyl}propanoate]",≤ 1,,2,,,
